This note sets out measurements from US6900019B1, “In-situ cell extraction and assay method” (Amersham Biosciences UK Limited, priority 1997, dated 2005).

For assay [1], the system named is rabbit anti-cAMP sera (antigen:antibody binding). Description: Scintillation proximity radioimmunoassay for cAMP: standard curves with lysis reagents and sequestrants. Conditions: for [125I]cAMP bound to SPA beads, counts per minute: 2.5% alpha-cyclodextrin only. The method, then: All assays were carried out in microtitre plates compatible with a microtitre plate beta scintillation counter. Standards (50 μl; 0.2-12.8 pmol/well), antisera (50 μl; at 1:11000 dilution), tracer (50 ul; 10000-20000 cpm) are added to anti-rabbit coated SPA beads (50 μl; 20 mg/ml). Non-specific binding was determined in the absence of specific rabbit antisera. SPA anti-rabbit reagent is placed onto a magnetic stirrer to ensure a homogeneous suspension before pipetting. All wells contained a total volume of 200 μl. The plates were sealed and incubated at room temperature (15-30° C.) for 15-20 hours. The amount of [^125I]cAMP bound to the SPA fluomicrospheres was determined by counting in a microtitre plate beta scintillation counter for 2 minutes.
Experiments were set up with:— • a) Working standards (4-256 pmol/ml; 0.2-12.8 pmol/well) were prepared in assay buffer (0.05M sodium acetate buffer containing 0.01% sodium azide) only (control) or assay buffer containing lysis reagent (e.g. DTAB, CPC or SDS; see experiment 1) at various concentrations. • b) Rabbit anti-cAMP sera prepared in assay buffer only (control) or assay buffer containing sequestrating agent at various concentrations depending on the experiment. • c) Radioactive tracer: adenosine 3′ 5′-cyclic phosphoric acid 2′-O-succinyl-3-[^125I] iodotyrosine methyl ester prepared in assay buffer only (control) or assay buffer containing sequestrating agent at various concentrations depending on the experiment. • d) Donkey anti-rabbit IgG coupled to scintillation proximity fluomicrospheres prepared in assay buffer only (control) or assay buffer containing sequestrating agent at various concentrations depending on the experiment. Experiment 1: Inhibition of Antigen and Antibody Binding by Several Lysis Reagents Method
In these experiments, standard curves were prepared for cAMP using the SPA immunoassay technique, described above, where working standards of cAMP were prepared in several lysis reagents at 1% (w/v) or 2% (w/v) final concentration. The detergents investigated included dodecyl trimethyl ammonium bromide (DTAB; Sigma Chemical Co. D8638), benzethonium chloride (BZC; Aldrich; B470-8), cetyl pyridinium chloride (CPC; Sigma Chemical Co; C9002), sodium dodecyl sulphate (SDS, Sigma chemical Co; L4509) and N-dodecyl-N,N-dimethyl-3-ammonio-1-propanesulphonate (DDAPS; Sigma Chemical Co.; D4516).
In these experiments, standard curves for cAMP were prepared using the SPA immunoassay technique described above, where working standards of cAMP were prepared in 1% (w/v), 1.5% (w/v) or 2% (w/v) lysis reagents (DTAB, SDS or CPC). The control consisted of no lysis reagent or cyclodextrin added. The effect including 2.5% (w/v) alpha-cyclodextrin (alpha-CD) (Sigma Chemical Co.; C4642) on antigen:antibody binding was investigated. Here, tracer, antisera and SPA beads were prepared in assay buffer containing 2.5% (w/v) alpha-CD. A second control tested the effect of 2.5% (w/v) alpha-CD on the standard curve without addition of lysis reagent.
In this experiment, standard curves for cAMP were prepared using the SPA radioimmunoassay where working standards of cAMP were prepared in 1% (w/v) DTAB. The effect of including 1% (w/v), 2% (w/v), 2.5% (w/v) and 5% (w/v) alpha-cyclodextrin on antigen:antibody binding was investigated. Here, tracer, antisera and SPA beads were prepared in assay buffer containing alpha-CD at the above concentrations. The control consisted of no lysis or cyclodextrin added to the assay.
In this experiment, standard curves for cAMP were prepared using the SPA immunoassay technique where working standards were prepared 1% (wt) lysis reagent (DTAB). The effect of including 2.5% (w/v) alpha-cyclodextrin (CD) 2.5% (w/v) beta-cyclodextrin (beta-CD) (Sigma is Chemical Co.; C4767) and 2.5% (w/v) gamma-cyclodextrin (gamma-CD) (Sigma Chemical Co.; 4892) on antigen:antibody binding was investigated. […]
(Scintillation proximity formats need no separation of bound from free tracer.)

The test system of assay [2] is binding protein prepared from bovine adrenal cortex. Description: Radioreceptor binding assay for D-myo-inositol 1,4,5-trisphosphate (IP3) with lysis reagent and sequestrant. The conditions noted are these: 0.5% w/v DTAB in standards, alpha-cyclodextrin 2% final w/v in tracer and adrenal cortex preparation. The procedure: Bovine adrenal glands were removed from animals and stored at −20° C. before preparing the binding protein. The cortex was dissected from the adrenal glands, homogenised in NaHCO3 (20 mM) with dithiothreitol (1 mM), and the homogenate centrifuged at 5000 g for 15 minutes. The supernatant was centrifuged at 35000 g for 20 minutes, the resulting pellet resuspended in the homogenisation buffer and centrifuged again at 35000 g for 20 minutes. The final pellet was resuspended in homogenisaton buffer at a protein concentration of between 20-40 mg/ml.
For the assay, aliquots (100 μl) of the bovine adrenal cortex microsome preparation were incubated in 100 μl of 0.1M Tris buffer (pH9.0), containing 4 mM EDTA and 4 mg/ml bovine serum albumin. Incubations were carried out for 15 minutes in a final volume of 0.4 ml with [^3H] inositol 1,4,5-trisphosphate (100 μl; 6000 cpm) sample or standard (100 μl; 0.19-25 pmol inositol 1,4,5-trisphosphate/assay tube). Non-specific binding was determined in the presence of 1 nmol inositol 1,4,5-trisphosphate/tube. Incubations were terminated by centrifugation (12000 g) (10 minutes at 4° C.) and removal of the supernatant by gentle decantation. Particulate bound radioactivity was analysed, after suspension in 0.15M sodium hydroxide followed by neutralisation with 10% acetic acid, by liquid scintillation counting […]

For the compound `OC[C@H]1O[C@@H]2O[C@H]3[C@H](O)[C@@H](O)[C@@H](O[C@H]4[C@H](O)[C@@H](O)[C@@H](O[C@H]5[C@H](O)[C@@H](O)[C@@H](O[C@H]6[C@H](O)[C@@H](O)[C@@H](O[C@H]7[C@H](O)[C@@H](O)[C@@H](O[C@H]1[C@H](O)[C@H]2O)O[C@@H]7CO)O[C@@H]6CO)O[C@@H]5CO)O[C@@H]4CO)O[C@@H]3CO` [CD, alpha-cyclodextrin], the “restoration of antigen:antibody binding” value is reported as “restored binding to a limited degree” in assay [1] (1% (w/v) and 2% (w/v) alpha-CD, standards in 1% DTAB); “optimal results” in assay [1] (2.5% (w/v) alpha-CD, standards in 1% DTAB); “inhibitory” in assay [1] (5% (w/v) alpha-CD, standards in 1% DTAB). The “restoration of antigen:antibody binding by different sequestrants” value in assay [1] (2.5% (w/v) sequestrant, standards in 1% DTAB) is “restored binding to an optimal degree”. Further, in assay [1] (2.5% alpha-CD only, no lysis reagent), the “effect on the cAMP standard curve” value was “little impact”. The “[125I]cAMP bound to SPA beads, counts per minute” value (“[125I]cAMP bound … per minute” for short) in assay [1] (no lysis reagent, 0.2 pmol cAMP/well) turned out to be 2790 cpm; in assay [1] (no lysis reagent, 0.2 pmol cAMP/well, listed as cyclodextrin) it was 2358 cpm; in assay [1] (no lysis reagent, 0.4 pmol cAMP/well) it was 2485 cpm; in assay [1] (no lysis reagent, 0.4 pmol cAMP/well, listed as cyclodextrin) it was 1979 cpm; in assay [1] (no lysis reagent, 0.8 pmol cAMP/well), 1979 cpm; in assay [1] (no lysis reagent, 0.8 pmol cAMP/well, listed as cyclodextrin), 1682 cpm. Further, the “[125I]cAMP bound … per minute” value in assay [1] (no lysis reagent, 1.6 pmol cAMP/well) is on record as 1503 cpm; in assay [1] (no lysis reagent, 1.6 pmol cAMP/well, listed as cyclodextrin), 1499 cpm; in assay [1] (no lysis reagent, 3.2 pmol cAMP/well), 1058 cpm; in assay [1] (no lysis reagent, 3.2 pmol cAMP/well, listed as cyclodextrin), 1143 cpm; in assay [1] (no lysis reagent, 6.4 pmol cAMP/well), 674 cpm; in assay [1] (no lysis reagent, 6.4 pmol cAMP/well, listed as cyclodextrin), 754 cpm. The “[125I]cAMP bound … per minute” value in assay [1] (no lysis reagent, 12.8 pmol cAMP/well) is reported as 415 cpm; in assay [1] (no lysis reagent, 12.8 pmol cAMP/well, listed as cyclodextrin), 383 cpm; in assay [1] (no lysis reagent, NSB (no specific antisera)), 155 cpm; in assay [1] (no lysis reagent, NSB (no specific antisera), listed as cyclodextrin), 199 cpm; in assay [1] (no lysis reagent, Zero standard), 3300 cpm; in assay [1] (no lysis reagent, Zero standard, listed as cyclodextrin), 3145 cpm. For the same compound, the “binding of [3H]IP3 to the receptor preparation” value in assay [2] is given as “Binding was restored”.
